Reference: the SangsterLogP compilation

Assay: not given

Compound | logP
CCOP(=S)(OCC)SCSC(C)(C)C | 3.98
CCCN(CCC)C(=O)SCC | 2.77
ClC(Cl)=C(c1ccc(Cl)cc1)c1ccccc1Cl | 5.45
CCSC(=O)N(CC(C)C)CC(C)C | 3.45
Clc1ccc(C(c2ccccc2Cl)C(Cl)Cl)cc1 (centres undefined) | 5.34
CCSC(=O)N1CCCCCC1 | 2.49
CCCCN(CC)C(=O)SCCC | 3.27
CCSC(=O)N(CC)C1CCCCC1 | 3.25
Clc1ccc(C(c2ccccc2Cl)C(Cl)(Cl)Cl)cc1 (centres undefined) | 5.53
CCOP(=S)(OCC)Oc1ccc2c(C)c(Cl)c(=O)oc2c1 | 4.01
COP(=O)(OC)O/C(=C\Cl)c1cc(Cl)c(Cl)cc1Cl | 3.87
CCCSC(=O)N(CCC)CCC | 3.19
CCc1cccc(CC)c1N(COC)C(=O)CCl | 2.95

Assay: method code RP-HPLC, from DOI: 10.1016/s0045-6535(96)00355-4

Compound | logP
CCNc1nc(NC(C)C)nc(OC)n1 | 2.29
CC(C)N(C(=O)CCl)c1ccccc1 | 2.36
CCC(CC)Nc1c([N+](=O)[O-])cc(C)c(C)c1[N+](=O)[O-] | 4.78
CCNc1nc(NC(C)(C)C)nc(OC)n1 | 2.95
CCNc1nc(N)nc(Cl)n1 | 1.07
OC(c1ccc(Cl)cc1)(c1ccc(Cl)cc1)C(Cl)(Cl)Cl | 4.93
